Source: patent US20230150924A1, “NOVEL COMPOUND HAVING CANCER METASTASIS INHIBITORY ACTIVITY, PREPARATION METHOD THEREFOR, AND PHARMACEUTICAL COMPOSITION FOR INHIBITING CANCER METASTASIS AND INVASION OR TREATING COLORECTAL CANCER, COMPRISING COMPOUND” (CELLGENTEK CO., LTD., priority 2019, published 2023)

Tests used:
[1] = tested on: KAI1 promoter; test: KAI1 promoter luciferase reporter assay in transfected Caco2 cells; assay type: cell-based, human; conditions: Homo sapiens, Caco-2, 16 h, 1 μM compound, 16 hours, transfected Caco2 cells, luciferase activity relative to DMSO control (=1); read-out: Relative KAI promoter activity
[2] = tested on: invasion of colorectal cancer cells; test: In vivo relative invation (invasion; EV and KITENIN controls, no method described); conditions: relative to EV (=1); KIT = KITENIN

| Structure (SMILES) | fold induction at 1 µM [1] | In vivo relative invation [2] |
| --- | --- | --- |
| O=C(CNC(=O)c1ccccc1CN1CCOCC1)c1ccccc1 [Example 304, 2-(morpholinomethyl)-N-(2-oxo-2-phenylethyl)benzamide] | 1.24 | 1.193 |
| O=C(CNC(=O)c1cccc(CN2CCN(c3ccccn3)CC2)c1)c1ccccc1 [Example 240, N-(2-oxo-2-phenylethyl)-3-((4-(pyridin-2-yl)piperazin-1-yl)methyl)benzamide] | 1.3 | 1.1 |
| O=C(COc1ccccc1C(=O)NCC(=O)c1ccccc1)Nc1ccc2c(c1)OCCO2 [Example 218, 2-(2-((2,3-dihydrobenzo[b] [1, 4]dioxin-6-yl)amino)-2-oxoethoxy)-N-(2-oxo-2-phenylethyl)benzamide] | 1.33 | 1.169 |
| CN(C)Cc1ccccc1C(=O)NCC(=O)c1ccccc1 [Example 296, 2-((dimethylamino)methyl)-N-(2-oxo-2-phenylethyl)benzamide] | 1.53 | 1.026 |
| O=C(CNC(=O)c1ccc(C(F)(F)F)cc1)c1ccccc1 [Example 32, N-(2-oxo-2-phenylethyl)-4-(trifluoromethyl)benzamide] | 1.02 | 1.383 |
| O=C(CNC(=O)c1ccccc1OC1CCN(C(=O)c2ccc(F)cc2F)CC1)c1ccccc1 [Example 177, 2-((1-(2,4-difluorobenzoyl)piperidin-4-yl)oxy)-N-(2-oxo-2-phenylethyl)benzamide] | 0.95 | 1.159 |
